Test results reported in US20070203098A1, “Pten Inhibitors” (priority 2004, published 2007).
Several values for one entry are separate records, joined by “and”; a condition that tells them apart may be missing. Identical values can stand only once. Like-named read-outs stand apart in the source and are kept apart here. Marks after values point to notes of the source that are not given here.

How the values were obtained:
mouse aortic ring = test: In Vitro Aortic Ring Angiogenesis Assay; type: cell-based; settings: 120 h; for activity at 40 µM: 5 days
PTEN [1] = target: T1, PTEN (Homo sapiens, UniProt P60484); test: PTEN Inhibition Assay: General Screening; type: biochemical
T1 sequence (P60484 whole entry, species assumed): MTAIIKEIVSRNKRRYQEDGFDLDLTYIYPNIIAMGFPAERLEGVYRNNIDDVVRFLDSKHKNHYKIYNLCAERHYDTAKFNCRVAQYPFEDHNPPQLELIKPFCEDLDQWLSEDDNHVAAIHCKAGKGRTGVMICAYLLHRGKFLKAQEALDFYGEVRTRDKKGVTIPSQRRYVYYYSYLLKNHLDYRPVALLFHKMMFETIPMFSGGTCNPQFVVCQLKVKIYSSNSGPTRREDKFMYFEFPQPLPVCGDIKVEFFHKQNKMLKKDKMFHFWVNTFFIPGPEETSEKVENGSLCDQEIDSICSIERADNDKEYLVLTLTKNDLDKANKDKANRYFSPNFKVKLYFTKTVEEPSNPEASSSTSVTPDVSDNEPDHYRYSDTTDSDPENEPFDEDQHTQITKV

PTEN [2] = target: T1, PTEN; test: PTEN Inhibition Assay: IC50 Determinations; type: biochemical
PTP1B = target: T2, PTP1B (Homo sapiens, UniProt P18031); test: PTP1B Inhibition Assay: IC50 Determinations; type: biochemical
T2 sequence (P18031 1-435): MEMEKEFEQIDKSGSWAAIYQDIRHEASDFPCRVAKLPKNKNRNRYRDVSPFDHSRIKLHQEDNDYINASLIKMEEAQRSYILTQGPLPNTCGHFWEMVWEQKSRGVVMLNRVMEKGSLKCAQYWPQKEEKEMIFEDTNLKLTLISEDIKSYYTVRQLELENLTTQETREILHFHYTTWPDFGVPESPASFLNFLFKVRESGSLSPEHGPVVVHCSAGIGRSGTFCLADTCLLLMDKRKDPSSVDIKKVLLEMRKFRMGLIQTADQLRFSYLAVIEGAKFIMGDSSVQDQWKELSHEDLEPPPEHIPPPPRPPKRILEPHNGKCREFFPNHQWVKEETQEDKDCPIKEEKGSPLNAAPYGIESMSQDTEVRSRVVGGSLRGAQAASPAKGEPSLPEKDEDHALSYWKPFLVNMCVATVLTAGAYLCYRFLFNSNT

[3] = system: human brain endothelial cells (HBEC); test: MTT Assay for Determining Toxicity, HBEC; type: cell-based; settings: Endothelial cell, read-out: Viability IC50 HBEC
[4] = system: human non-small cell lung cancer cells (H1299); test: MTT Assay for Determining Toxicity, H1299; type: cell-based; settings: read-out: Viability IC50 H1299
[5] = system: human prostate cancer cells (PC-3); test: MTT Assay for Determining Toxicity, PC-3; type: cell-based; settings: read-out: Viability IC50 PC-3
MEF PTEN wt = test: Migration Assay, MEF PTEN wt; type: cell-based, mouse
MEF PTEN null = test: Migration Assay, MEF PTEN null; type: cell-based, mouse
U87MG PTEN wt = type: cell-based
U87MG PTEN null = type: cell-based
[6] = system: HBEC (Human Brain Endothelial Cells); test: Wound Healing Assay; type: cell-based
RAC1-GTP = type: cell-based, mouse
GST-PTEN fusion protein = GST-PTEN fusion protein (Homo sapiens, UniProt P60484); test: Immobilized PTEN; type: biochemical; settings: PLV substrate
GST-PTEN fusion protein, sequence (P60484 whole entry, the tested form may be a part): as the sequence (P60484 whole entry, species assumed) above
Experimental: In the PTEN inhibition assay, to exclude the possibility that PTEN inhibitor candidates interact with the unilameller PIP3 lipid vesicle (PLV) to block PTEN and artificially mimic PTEN inhibition, PTEN was bound to a solid support and treated with inhibitor, the inhibitor washed away and then the capability of the bound PTEN to dephosphorylate PLV was determined. […] The gel was centrifuged, washed 3 times and centrifuged again. […] Then a 100 ul portion of malachite green buffer (Upstate, Charlottesville, Va.) was added to develop the color in the dark at room temperature. […] Optical density measurements were converted to nanomoles of phosphate detected using a phosphate-malachite green standard calibration curve.

[7] = read-out: Branch (% of control)
[8] = read-out: % Inhibition @ 250 uM
[9] = MTT, serum-free, 2 hours with compound
[10] = NCI-H1299, MTT, serum-free, 2 hours with compound
[11] = relative to no treatment control

O=c1cc(N2CCOCC2)oc2c(-c3ccccc3)cccc12 [LY294002, reference compound] was tested, and the activity at 40 µM (mouse aortic ring; [7]) was 0 to 0.8% and the activity at 40 µM (mouse aortic ring; read-out: Stem (% of control)) was 0 to 2%.

Molecule CC(C)(C)C(=O)Nc1ccc2c(c1)C(=O)C(=O)c1ccccc1-2 [SF1670-000, N-(9,10-Dioxo-9,10-dihydro-phenanthren-2-yl)-2,2-dimethyl-propionamide] has an inhibition at 250 µM (PTEN [1]; [8]) of 100%, an IC50 (PTEN [2]) of 2 µM and an IC50 (PTP1B) of 17 µM. For the same molecule, the IC50 ([3]; 2 h) was 5 µM, the IC50 ([4]; NCI-H1299, 2 h) was 10 µM and the IC50 ([5]; 2 h) was 44 µM. The activity at 5 µM (mouse aortic ring; [7]) was 126 to 166%, the activity at 5 µM (mouse aortic ring; read-out: Stem (% of control)) was 107 to 196% and the “migration number, Average” value (MEF PTEN wt) was 16.00 and 22.60 and 31.20 and 28.70 and 26.80. For the same molecule, the “migration number, Average” value (MEF PTEN null) was 47.20 and 49.30 and 49.90 and 47.60 and 45.90, the “concentration of maximal induction of migration” value (U87MG PTEN wt) was 30 nM and the “migration number, Average” value (U87MG PTEN null) was 60.90 and 57.20. For the same molecule, the “HBEC migration across the wound, in words” value [6] was “migrate faster” and the “integrin induced activation of RAC to its GTP bound state” value (RAC1-GTP) was “augmented integrin induced activation of RAC”.

With O=C1C(=O)c2cccnc2-c2ncccc21 [SF1720-000, 1,10-phenanthroline-5,6-dione] the IC50 (PTEN [2]; Table 1, read-out: PTEN Inhibition IC50) was 5 µM, the IC50 (PTEN [2]; Table 25, read-out: PTEN IC50) was 5 µM and the IC50 (PTEN [2]; Table 29, read-out: PTEN IC50) was 5 µM. The “selective inhibition for PTEN over PTP1B” value (PTEN [2]; ratio of IC50's) was “more than 50 fold”, the IC50 (PTP1B; Table 29, read-out: PTP1B IC50) was over 250 µM and the IC50 [3, 9] was 1 µM. The IC50 [4, 10] was under 1 µM, the IC50 [5, 9] was 7 µM and the “migration number, Average” value (MEF PTEN wt; 125 uM, Table 4) was 18.20. For the same molecule, the “migration number, Average” value (MEF PTEN wt; 250 uM, Table 4) was 11.90, the “migration number, Average” value (MEF PTEN null; 125 uM, Table 4) was 36.50 and the “migration number, Average” value (MEF PTEN null; 250 uM, Table 4) was 37.30. For the same molecule, the “distance the cells have grown out” value ([6]; 10 nM, 2 hrs) was 0.03* millimeters, the “distance the cells have grown out” value ([6]; 10 nM, 4 hrs) was 0.04667 millimeters and the “distance the cells have grown out” value ([6]; 10 nM, 6 hrs) was 0.08* millimeters. For the same molecule, the “distance the cells have grown out” value ([6]; 10 nM, 24 hrs) was 0.155* millimeters, the “distance the cells have grown out” value ([6]; 50 nM, 2 hrs) was 0.03667 millimeters and the “distance the cells have grown out” value ([6]; 50 nM, 4 hrs) was 0.04667 millimeters. For the same molecule, the “distance the cells have grown out” value ([6]; 50 nM, 6 hrs) was 0.05667* millimeters, the “distance the cells have grown out” value ([6]; 50 nM, 24 hrs) was 0.1583* millimeters and the “distance the wound edge had moved forward” value ([6]; 0.111 uM, 2 hrs) was 0.04333 mm. For the same molecule, the “distance the wound edge had moved forward” value ([6]; 0.111 uM, 4 hrs) was 0.05667 mm, the “distance the wound edge had moved forward” value ([6]; 0.111 uM, 6 hrs) was 0.06833 mm and the “distance the cells have grown out” value ([6]; 250 nM, 2 hrs) was 0.025 millimeters. For the same molecule, the “distance the cells have grown out” value ([6]; 250 nM, 4 hrs) was 0.03667 millimeters, the “distance the cells have grown out” value ([6]; 250 nM, 6 hrs) was 0.05167* millimeters and the “distance the cells have grown out” value ([6]; 250 nM, 24 hrs) was 0.1117* millimeters. The “distance the wound edge had moved forward” value ([6]; 0.333 uM, 2 hrs) was 0.05 mm, the “distance the wound edge had moved forward” value ([6]; 0.333 uM, 4 hrs) was 0.085 mm and the “distance the wound edge had moved forward” value ([6]; 0.333 uM, 6 hrs) was 0.1333 mm. For the same molecule, the “HBEC migration across the wound, in words” value [6, 11] was “migrate faster”, the “inorganic phosphate detected, oriPTEN + 1720, Average” value (GST-PTEN fusion protein; PTEN in solution) was 0.1028 nmol and the “inorganic phosphate detected, oriPTEN + 1720” value (GST-PTEN fusion protein; PTEN in solution, single determinations) was 0.0995 nmol and 0.106 nmol. For the same molecule, the “inorganic phosphate detected, PTEN gel/1720 bound, Average” value (GST-PTEN fusion protein; immobilized PTEN pretreated 1 hour, washed) was 0.1142 nmol and the “inorganic phosphate detected, PTEN gel/1720 bound” value (GST-PTEN fusion protein; immobilized PTEN pretreated 1 hour, washed, single determinations) was 0.1191 nmol and 0.1093 nmol.

With O=C1Nc2ccc([N+](=O)[O-])cc2C1=O [SF1770-000, 5-nitroindoline-2,3-dione] the inhibition at 250 µM (PTEN [1]; 250 uM, Table 27 isatins, read-out: % Inhibition @250 uM) was 99.4%, the IC50 (PTEN [2]; Table 29, read-out: PTEN IC50) was 2.2 µM and the IC50 (PTP1B; Table 29, read-out: PTP1B IC50) was 16.3 µM. It also gave an IC50 [3, 9] of over 1000 µM, an IC50 [4, 10] of 695 µM and an IC50 [5, 9] of over 1000 µM. For the same molecule, the “migration number, Average” value (MEF PTEN wt; 125 uM, Table 4) was 22.90, the “migration number, Average” value (MEF PTEN wt; 250 uM, Table 4) was 22.40 and the “migration number, Average” value (MEF PTEN null; 125 uM, Table 4) was 42.30. For the same molecule, the “migration number, Average” value (MEF PTEN null; 250 uM, Table 4) was 41.50, the “distance the cells have grown out” value ([6]; 10 nM, 2 hrs) was 0.02667* millimeters and the “distance the cells have grown out” value ([6]; 10 nM, 4 hrs) was 0.045* millimeters. For the same molecule, the “distance the cells have grown out” value ([6]; 10 nM, 6 hrs) was 0.065* millimeters, the “distance the cells have grown out” value ([6]; 10 nM, 24 hrs) was 0.1483* millimeters and the “distance the cells have grown out” value ([6]; 50 nM, 2 hrs) was 0.05 millimeters. The “distance the cells have grown out” value ([6]; 50 nM, 4 hrs) was 0.06 millimeters, the “distance the cells have grown out” value ([6]; 50 nM, 6 hrs) was 0.075 millimeters and the “distance the cells have grown out” value ([6]; 50 nM, 24 hrs) was 0.2233* millimeters. For the same molecule, the “distance the cells have grown out” value ([6]; 250 nM, 2 hrs) was 0.04 millimeters, the “distance the cells have grown out” value ([6]; 250 nM, 4 hrs) was 0.05167 millimeters and the “distance the cells have grown out” value ([6]; 250 nM, 6 hrs) was 0.06667 millimeters. For the same molecule, the “distance the cells have grown out” value ([6]; 250 nM, 24 hrs) was 0.2017* millimeters, the “distance the cells have grown out” value ([6]; 1000 nM, 2 hrs) was 0.04 millimeters and the “distance the cells have grown out” value ([6]; 1000 nM, 4 hrs) was 0.06167 millimeters. For the same molecule, the “distance the cells have grown out” value ([6]; 1000 nM, 6 hrs) was 0.07667 millimeters, the “distance the cells have grown out” value ([6]; 1000 nM, 24 hrs) was 0.2417 millimeters and the “HBEC migration across the wound, in words” value [6, 11] was “migrate faster”.

Work on Cc1ccc(C(=O)Nc2ccc3c(c2)C(=O)C(=O)c2ccccc2-3)cc1 [SF1779-000] yielded an inhibition at 250 µM (PTEN [1]; [8]) of 99.8%, an IC50 (PTEN [2]) of 0.342 µM and an IC50 (PTP1B) of 0.233 µM. For the same molecule, the activity at 5 µM (mouse aortic ring; [7]) was 112 to 138%, the activity at 5 µM (mouse aortic ring; read-out: Stem (% of control)) was 92 to 125% and the “migration number, Average” value (MEF PTEN wt) was 20.60 and 18.00. The “migration number, Average” value (MEF PTEN null) was 47.30 and 43.50.

Nc1ccc2c(c1)C(=O)C(=O)c1ccccc1-2 [SF1789-000] gave an inhibition at 250 µM (PTEN [1]; [8]) of 99%, an IC50 (PTEN [2]) of 0.776 µM and an IC50 (PTP1B) of 2.97 µM.

Molecule O=C(COc1ccc(Cl)cc1)Nc1ccc2c(c1)C(=O)C(=O)c1ccccc1-2 [SF1790-000] has an inhibition at 250 µM (PTEN [1]; [8]) of 99.2%, an IC50 (PTEN [2]) of 2.6 µM and an IC50 (PTP1B) of 1 to 10 µM.

Work on O=C(COc1ccccc1[N+](=O)[O-])Nc1ccc2c(c1)C(=O)C(=O)c1ccccc1-2 [SF1796-000] yielded an inhibition at 250 µM (PTEN [1]; [8]) of 99%, an IC50 (PTEN [2]; Table 29, read-out: PTEN IC50) of 0.65 µM and an IC50 (PTP1B; Table 29, read-out: PTP1B IC50) of under 10 µM.

In the case of O=C1C(=O)c2cc(NS(=O)(=O)c3cccs3)ccc2-c2ccccc21 [SF1798-000], the inhibition at 250 µM (PTEN [1]; [8]) is reported as 93.6%, the IC50 (PTEN [2]) is reported as 0.369 µM and the IC50 (PTP1B) is reported as under 10 µM.

O=C(Nc1ccc2c(c1)C(=O)C(=O)c1ccccc1-2)c1cccs1 [SF1799-000] showed an inhibition at 250 µM (PTEN [1]; [8]) of 99.4%, an IC50 (PTEN [2]) of 0.733 µM and an IC50 (PTP1B) of under 10 µM.
